Laboratory results published in ChEMBL document CHEMBL3272193, “New synthetic calcium selective ionophores. Design, synthesis, and transport properties” (J Med Chem, 1978).

Experiments:
Format in all cases: physicochemical
[1] = Induction of sodium transport in chloroform layer up to 7 to 11 hrs
[2] = Induction of calcium transport in chloroform layer up to 7 to 11 hrs in absence of picrate
[3] = Induction of magnesium transport in chloroform layer up to 3 hrs
[4] = Induction of calcium transport in chloroform layer up to 7 to 11 hrs in presence of picrate

Row | SMILES | Activity [1] | Activity [2] | Activity [3] | Activity [4]
1 | COc1ccccc1CC(C)N(C)C(=O)COCCOCC(=O)N(C)C(C)Cc1ccccc1OC (mixture of isomers) | Not Active | Active | Active | Active
2 | CC(CC1CCCCC1)N(C)C(=O)COCC(=O)O (centres undefined) | Not Active | Active | Active | Active
3 | O=C(COCCOCC(=O)NC12CC3CC(CC(C3)C1)C2)NC12CC3CC(CC(C3)C1)C2 | Not Active | – | – | –
4 | O=C(O)COCC(=O)NCCc1ccccc1 | Not Active | – | – | –
5 | CN(CCc1ccccc1)C(=O)COCC(=O)O | Not Active | – | – | –
6 | O=C(COCCOCC(=O)NCCc1ccccc1)NCCc1ccccc1 | Not Active | – | – | –
7 | CC(CC1CCCCC1)N(C)C(=O)COCCOCC(=O)N(C)C(C)CC1CCCCC1 (mixture of isomers) | Not Active | Active | – | Active
8 | O=C(COCCOCC(=O)NCCc1c[nH]c2ccccc12)NCCc1c[nH]c2ccccc12 | Not Active | – | – | –
9 | O=C(O)COCC(=O)N1CCC(C(c2ccccc2)c2ccccc2)CC1 | Not Active | Active | Active | Active
10 | O=C(O)COCC(=O)NC12CC3CC(CC(C3)C1)C2 | Not Active | – | – | –
11 | O=C(COCCOCC(=O)N1c2ccccc2C=Cc2ccccc21)N1c2ccccc2C=Cc2ccccc21 | Not Active | Active | – | Active
